Assay results reported in US20240383846A1, “MERCAPTOACETOPHENONE AMINOHYDRAZONES, THEIR SALTS AND USES THEREOF” (priority 2021, published 2024).
In brackets after ≈: the same amount, converted by molar mass. Read-outs that look alike come from different tables or passages of the source.

Legend:
A. baumannii AB5075 = test: MIC by broth microdilution (CLSI) against A. baumannii AB5075; format: cell-based, Acinetobacter baumannii; settings: for MIC: Acinetobacter baumannii
Text: (§1) Table 1 summarizes the antibacterial activity of certain compounds, according to the present invention, as calculated by minimum inhibitory concentration (MIC) values against one multidrug resistant gram-positive strain (MRSA USA300), and one multidrug resistant gram-negative (Acinetobacter baumannii AB5075). The later bacterial strain is listed at the top of the WHO's critical priority list for antibiotic development. Preferred compounds, according to the present invention are example compounds of formulas 72, 74, and 75, and, in particular, example compound of formula 75.
(§2) The minimum inhibitory concentration (MIC) of tested compounds and control antibiotics was determined using the broth microdilution method according to the guidelines outlined by the Clinical and Laboratory Standards Institute (CLSI, Methods for Dilution Antimicrobial Susceptibility Tests for Bacteria That Grow Aerobically; Approved Standard. January 2012; Vol. Ninth Edition M07-A9. 32 No. 2.). Bacterial strains were grown aerobically overnight on tryptone soy agar plates at 37° C. Afterwards, a bacterial solution equivalent to 0.5 McFarland standard was prepared and diluted in cation-adjusted Mueller-Hinton broth (CAMHB) to achieve a bacterial concentration of about 5×10^5 CFU/mL and seeded in 96-well plates. Compounds and control drugs were added in the first row of the 96-well plates and serially diluted along the plates. Plates were then, incubated aerobically at 37° C. for 18-20 hours.

MRSA USA300 [1] = test: MIC by broth microdilution (CLSI) against MRSA USA300; format: cell-based, Staphylococcus aureus; settings: for MIC: Staphylococcus aureus, read-out: MRSA USA300 MIC
Text: as §1, §2

MRSA USA300 [2] = test: Multi-step resistance experiment, 14 consecutive passages; format: cell-based, Staphylococcus aureus
Experimental: A multi-step resistance experiment was conducted, with example compound of formula 75. Initially, the MICs of heptyl compound and rifampicin, as the control antibiotic, were determined against MRSA USA300 using the broth microdilution method. Then, the strain was subcultured for fourteen consecutive passages over two weeks, with increasing concentrations of the tested agents, to detect the shift in the MIC, if any.
Multi-step resistance testing was conducted as reported earlier (PLOS One, 12 (2017) e0182821). A broth microdilution assay was used to determine the MIC for the MRSA strain USA300 after being exposed for 14 consecutive passages to either the example compound of formula 75, or rifampicin, as a control antibiotic. Briefly, different concentrations of TBT4 and rifampicin were prepared in 10 mL Mueller-Hinton (MH) broth (0.125 to 32 μg/ml and 0.003 to 1024 μg/mL, respectively) and they were inoculated with 10 μL of an overnight culture of S. aureus strain USA300 and then incubated at 37° C., with shaking at 180 rpm, for 24 h. […] Resistance was classified as a greater than four-fold increase in the initial MIC (Antimicrob. Agents Chemother., 55 (2011) 1177-1181).

MRSA strain USA300 = test: Murine skin infection model, subcutaneous MRSA infection, topical treatment; format: in vivo; settings: mice, twice daily for four days; for bacterial counts from skin lesions compared with PJ group / appearance of skin lesions (visual comparison): 2% topical; for bacterial counts from skin lesions compared with PJ group: *p≤0.05; for appearance of skin lesions (visual comparison): vs petroleum jelly vehicle
Experimental: The effectiveness of certain compounds, according to the present invention, was assessed using a murine skin infection model, conducted as previously described (Tseng, C. W. et. al. Subcutaneous infection of methicillin resistant Staphylococcus aureus (MRSA), J. Vis. Exp., (2011) 2528). The effect of example compound of formula 75 was assessed against skin infection caused by methicillin-resistant Staphylococcus aureus (MRSA), the main causative agent of diabetic foot ulcer. Within 72 hours post-subcutaneous infection with MRSA strain USA300, the backs of the mice started showing evident lesions. At this point, treatment regimen started for the three groups of mice, for four days, twice daily, with petroleum jelly (PJ) or petroleum jelly with 2% example compound of formula 75 or 2% fusidic acid ointment (FA). […] The mice with plain vehicle (PJ) applied throughout the experiment had ulcerated lesions and visible skin damage with demarcated red prominent edges, as shown in FIG. 2A.

[3] = AB5075, broth microdilution, CAMHB, 37° C., 18-20 hours, read-out: A. baumannii AB5075 MIC
[4] = broth microdilution, CAMHB, 37° C., 18-20 hours
[5] = end of the experiment (fourteen passages)
[6] = comparison of MIC values of Table 1

Compound | MIC (A. baumannii AB5075; [3]) | MIC (MRSA USA300 [1]; [4]) | further results
CCCCCCCCCSc1ccc(/C(C)=N/NC(=N)N)cc1 [Example compound of formula 73] | 16 µg/mL | 2 µg/mL | 
C/C(=N\NC(=N)N)c1ccc(SCC(C)C)cc1 [Example compound of formula 76] | 16 µg/mL | 8 µg/mL | 
Gentamycin [reference compound] |  |  | A. baumannii AB5075 MIC (A. baumannii AB5075; [4]): 1 µg/mL
CCCCCSc1ccc(/C(C)=N/NC(=N)N)cc1 [Example compound of formula 71] | 16 µg/mL | 8 µg/mL | 
CO[C@H]1/C=C/O[C@@]2(C)Oc3c(C)c(O)c4c(O)c(c(/C=N/N5CCN(C)CC5)c(O)c4c3C2=O)NC(=O)/C(C)=C\C=C\[C@H](C)[C@H](O)[C@@H](C)[C@@H](O)[C@@H](C)[C@H](OC(C)=O)[C@@H]1C [rifampicin, reference compound] |  |  | increase in MIC against MRSA USA300 (MRSA USA300 [2]; eighth passage): 7 fold; increase in MIC against MRSA USA300 (MRSA USA300 [2]; [5]): 13 fold
CN[C@H](CC(C)C)C(=O)N[C@H]1C(=O)N[C@@H](CC(N)=O)C(=O)N[C@H]2C(=O)N[C@H]3C(=O)N[C@H](C(=O)N[C@H](C(=O)O)c4cc(O)cc(O)c4-c4cc3ccc4O)[C@H](O)c3ccc(c(Cl)c3)Oc3cc2cc(c3O[C@@H]2O[C@H](CO)[C@@H](O)[C@H](O)[C@H]2O[C@H]2C[C@](C)(N)[C@H](O)[C@H](C)O2)Oc2ccc(cc2Cl)[C@H]1O [Vancomycin, reference compound] |  |  | MIC (A. baumannii AB5075; AB5075, read-out: A. baumannii AB5075 MIC): > 128 µg/mL; MIC (MRSA USA300 [1]): 1 µg/mL (≈ 0.69 µM)
C/C(=N\NC(=N)N)c1ccc(SCC2CCC2)cc1 [Example compound of formula 81] | 16 µg/mL | 8 µg/mL | 
CCCCCCSc1ccc(/C(C)=N/NC(=N)N)cc1 [Example compound of formula 74, 2-(1-(4-(Hexylthio)phenyl)ethylidene)hydrazine-1-carboximidamide] | 4 µg/mL | 0.5 µg/mL | potency against tested gram-negative pathogen (A. baumannii AB5075) relative to example compound of formula 75 (A. baumannii AB5075; [6]): four times less potent; potency against S. aureus USA300 relative to example compound of formula 75 (MRSA USA300 [1]; [6]): maintained the same potency
CCCSc1ccc(/C(C)=N/NC(=N)N)cc1 [Example compound of formula 68] |  |  | A. baumannii AB5075 MIC (A. baumannii AB5075; [4]): No inhibition; MRSA USA300 MIC (MRSA USA300 [1]; [4]): No inhibition
C/C(=N\NC(=N)N)c1ccc(SC2CCCC2)cc1 [Example compound of formula 79] | 16 µg/mL | 8 µg/mL | 
C=CCCSc1ccc(/C(C)=N/NC(=N)N)cc1 [Example compound of formula 70] | 32 µg/mL | 32 µg/mL | 
CCCCCCCCSc1ccc(/C(C)=N/NC(=N)N)cc1 [Example compound of formula 72] | 8 µg/mL | 1 µg/mL | 
C/C(=N\NC(=N)N)c1ccc(SC2CCCCC2)cc1 [Example compound of formula 80] | 8 µg/mL | 4 µg/mL | 
CC(=O)O[C@H]1C[C@@]2(C)[C@@H](C[C@@H](O)[C@H]3[C@@]4(C)CC[C@@H](O)[C@@H](C)[C@@H]4CC[C@@]32C)/C1=C(\CCC=C(C)C)C(=O)O [fusidic acid, reference compound] |  |  | bacterial counts from skin lesions compared with PJ group (MRSA strain USA300): significantly lower than the counts obtained from the PJ group; appearance of skin lesions (visual comparison) (MRSA strain USA300): showed signs of lesion healing and better recovery
CCCCCCCSc1ccc(/C(C)=N/NC(=N)N)cc1 [Example compound of formula 75, 2-(1-(4-(Heptylthio)phenyl)ethylidene)hydrazine-1-carboximidamide] | 1 µg/mL | 0.5 µg/mL | increase in MIC against MRSA USA300 (MRSA USA300 [2]; eighth passage): 2 fold; increase in MIC against MRSA USA300 (MRSA USA300 [2]; [5]): remained stable till the end of the experiment; increase in MIC against MRSA USA300 (MRSA USA300 [2]; on the fifth passage): one-fold; decrease in bacterial loads recovered from skin lesions (MRSA strain USA300; 2% in petroleum jelly, topical): ~1 log cycle; reduction in bacterial loads recovered from skin lesions (MRSA strain USA300; 2% in petroleum jelly, topical): 90%; bacterial counts from skin lesions compared with PJ group (MRSA strain USA300): significantly lower than the counts obtained from the PJ group; appearance of skin lesions (visual comparison) (MRSA strain USA300): showed signs of lesion healing and better recovery
C/C(=N\NC(=N)N)c1ccc(SCCc2ccccc2)cc1 [Example compound of formula 84] | 8 µg/mL | 2 µg/mL | 
C/C(=N\NC(=N)N)c1ccc(SCC2CCCCC2)cc1 [Example compound of formula 82] |  |  | A. baumannii AB5075 MIC (A. baumannii AB5075; [4]): No inhibition; MRSA USA300 MIC (MRSA USA300 [1]; [4]): No inhibition
C/C(=N\NC(=N)N)c1ccc(SCc2ccccc2)cc1 [Example compound of formula 83] | 16 µg/mL | 4 µg/mL | 
C/C(=N\NC(=N)N)c1ccc(SCCC(C)C)cc1 [Example compound of formula 77] | 8 µg/mL | 4 µg/mL | 
CCCCSc1ccc(/C(C)=N/NC(=N)N)cc1 [Example compound of formula 69] | 16 µg/mL | 8 µg/mL | 
CCC(CC)CSc1ccc(/C(C)=N/NC(=N)N)cc1 [Example compound of formula 78] |  |  | A. baumannii AB5075 MIC (A. baumannii AB5075; [4]): No inhibition; MRSA USA300 MIC (MRSA USA300 [1]; [4]): No inhibition
